Legend:
Format in all cases: cell-based
[1] = tested on: EMT, angiogenesis and pro-tumour inflammation genes (N-cadherin, cytokeratin, B1-integrin, VEGF, IL6, IL1b, E-cadherin); assay: qRT-PCR, mRNA levels of EMT, angiogenesis and inflammatory regulators in TNBC cell lines (FIG. 11)
Description: qRT-PCR: Total RNA was isolated from cells using TRIZOL and/or the miRNeasy mini kit (Qiagen). We carried out cDNA synthesis as previously described by Green, D., Eyre, H., Singh, A. et al (Targeting the MAPK7/MMP9 axis for metastasis in primary bone cancer. Oncogene 39, 5553-5569 (2020)). We performed qPCR using the SYBR Green I core kit (Eurogentec). PCR products were detected in the ABI PRISM® 7700 sequence detection system (Thermo Fisher Scientific). We analysed results using the […]. Gene expression was normalised to PGK1 or ACTB.
Relative mRNA levels, compared to internal control PGK1 or ACTB, in three triple negative breast cancer cell lines: MDA-MB-231, MDA-MB-468 and SUM159.

[2] = tested on: TNBC cells (MDA-MB-231, MDA-MB-468 and SUM159); assay: Immunofluorescence, morphology of TNBC cells (FIG. 10); conditions: 1 μM OS1 or 2.5 μM AX15836; MDA-MB-231, MDA-MB-468, SUM159
Procedure: (§1) Cells were seeded and treated. Media was aspirated, cells were washed with PBS and subsequently fixed in 10% formalin for 10 minutes. Fixed cells were washed in PBS and then permeablised with 0.1% (v/v) Triton-100 in PBS for 10 minutes. Cells were washed with PBS and the non-specific binding sites were blocked by incubating with 1% BSA for 30 minutes. Targets of interested were identified by incubating with 100 μl of primary antibody diluted in 1% BSA (see table) overnight at 4° C. After washing with PBS, samples were further incubated with species specific secondary antibody coupled to fluorescent tags (see antibody table) for 1 hour in the dark at room temperature. Some samples were further incubated with 100 μl of 1:200 phalloidin (Invitrogen, A12381) in 1% BSA for 2 hours at room temperature to identify actin filament structures. The EZ-slides casing was dismantled as described in manufacturer's instruction and slides were washed in distilled H2O. Samples were incubated with one drop of Mounting Medium with DAPI (abcam) for 5 minutes in the dark at room temperature to visualise the nuclei. A coverslip was added to each slide and allowed to dry at room temperature. Images were acquired on a 3D-Histech Pannoramic-250 microscope slide-scanner using a 20×/0.80 Plan Apochromat objective (Zeiss) and the DAPI, FITC and TRITC filter sets. […] Images were then processed and analysed using ImageJ. […]

[3] = tested on: ERK1/2; assay: Repeated dosing of OS1 up to 2 weeks, immunoblotting (FIG. 9): ERK1/2; conditions: 1 μM every 48 h for up to two weeks, TNBC cell lines
[4] = biological target: T1, ERK5 (Homo sapiens, UniProt Q13164); assay: Immunofluorescence, ERK5 staining in TNBC cells (FIG. 10); set-up: endogenous in cells; host or cells: MDA-MB-231, MDA-MB-468, SUM159; conditions: 1 μM OS1, TNBC cell lines
T1 sequence (Q13164 whole entry): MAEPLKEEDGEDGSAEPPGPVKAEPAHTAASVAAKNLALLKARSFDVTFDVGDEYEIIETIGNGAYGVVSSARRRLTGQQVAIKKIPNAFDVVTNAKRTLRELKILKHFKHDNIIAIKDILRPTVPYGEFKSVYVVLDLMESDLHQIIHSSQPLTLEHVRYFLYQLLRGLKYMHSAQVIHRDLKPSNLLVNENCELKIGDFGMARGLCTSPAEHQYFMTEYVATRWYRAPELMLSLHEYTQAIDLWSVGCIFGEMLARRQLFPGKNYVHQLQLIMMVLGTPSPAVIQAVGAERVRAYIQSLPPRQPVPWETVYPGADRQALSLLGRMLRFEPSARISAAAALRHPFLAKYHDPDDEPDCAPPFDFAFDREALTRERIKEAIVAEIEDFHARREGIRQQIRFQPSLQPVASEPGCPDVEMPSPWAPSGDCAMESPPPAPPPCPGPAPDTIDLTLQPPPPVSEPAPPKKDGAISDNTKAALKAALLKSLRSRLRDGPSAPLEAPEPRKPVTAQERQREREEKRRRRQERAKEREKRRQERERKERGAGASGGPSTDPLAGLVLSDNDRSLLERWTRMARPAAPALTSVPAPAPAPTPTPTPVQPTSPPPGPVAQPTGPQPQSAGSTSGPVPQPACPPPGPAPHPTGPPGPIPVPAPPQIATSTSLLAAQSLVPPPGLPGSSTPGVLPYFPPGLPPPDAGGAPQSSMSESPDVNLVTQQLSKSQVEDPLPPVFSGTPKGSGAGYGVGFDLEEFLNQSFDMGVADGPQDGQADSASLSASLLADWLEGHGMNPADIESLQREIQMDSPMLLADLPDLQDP
Procedure: as §1

[5] = biological target: T1, ERK5; assay: Immunoblotting, comparison with Example 7 of WO2021061894 in MDA-MB-468 cells (FIGS. 12 and 13): ERK5; set-up: endogenous in cells; host or cells: MDA-MB-468; conditions: 48 hours after a single dose, relative to b-actin
Procedure: (§2) We extracted proteins in RIPA assay buffer containing protease and phosphatase inhibitors. We resolved extracts (30 μg) by SDS/PAGE and electrophoretically transferred to an Immun-Blot® PVDF membrane (Bio-Rad). Membranes were saturated in 3% non-fat dry milk or 3% BSA and probed overnight at 4° C. with antibodies (1:1,000 dilution unless otherwise indicated) to ERK5, BRD4, MEK5 and β-actin. We detected immunocomplexes by enhanced chemiluminescence with IgG coupled to horseradish peroxidase as the secondary anti-rabbit and anti-mouse antibodies (Abcam).
(§3) OS1 and OS11 degrade EKR5 at lower concentrations than Comparative Example 7. OS1 is efficacious at degrading ERK5 at doses of 0.1 μM and OS11 at 0.01 μM. In contrast, a dose of 5 μM of Comparative Example 7 is required to achieve analogous ERK5 degradation to 0.1 μM OS1 or 0.01 μM OS11.

[6] = biological target: T2, MEK5 (Homo sapiens, UniProt Q13163); assay: Repeated dosing of OS1 up to 2 weeks, immunoblotting (FIG. 9): MEK5; conditions: 1 μM every 48 h for up to two weeks, TNBC cell lines
T2 construct: endogenous in cells; host or cells: MDA-MB-231, MDA-MB-468, SUM159
T2 sequence (Q13163 1-448): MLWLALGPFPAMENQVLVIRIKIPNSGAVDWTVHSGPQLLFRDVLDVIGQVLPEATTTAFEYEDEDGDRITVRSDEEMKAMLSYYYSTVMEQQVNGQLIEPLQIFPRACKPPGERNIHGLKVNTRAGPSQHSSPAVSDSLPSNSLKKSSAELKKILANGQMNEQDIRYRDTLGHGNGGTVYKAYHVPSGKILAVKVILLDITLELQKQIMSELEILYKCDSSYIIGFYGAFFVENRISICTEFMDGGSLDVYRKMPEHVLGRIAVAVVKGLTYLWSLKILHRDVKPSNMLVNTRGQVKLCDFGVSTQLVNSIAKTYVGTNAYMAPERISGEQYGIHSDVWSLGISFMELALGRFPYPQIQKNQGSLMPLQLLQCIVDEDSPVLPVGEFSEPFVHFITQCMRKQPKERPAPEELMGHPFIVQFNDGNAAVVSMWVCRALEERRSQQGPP
Procedure: as §2

[7] = tested on: ERK1/2; assay: Immunoblotting, specificity testing in 3 TNBC cell lines (FIG. 8): ERK1/2 levels; conditions: range of doses
Procedure: as §2, with “ERK5, P-ERK5, ERK1/2,” for “ERK5,”
(§4) Left hand side panels are Western blot images, showing the relative expression of proteins in response to a range of doses of OS1. Right hand side panels are graphs quantifying the western blot images to show ERK5, phospho-ERK5, ERK1/2 and BRD4 protein levels relative to the loading control β-actin.

[8] = biological target: T3, BRD4 (Homo sapiens, UniProt O60885); assay: Repeated dosing of OS1 up to 2 weeks, immunoblotting (FIG. 9): BRD4; set-up: endogenous in cells; conditions: 1 μM every 48 h for up to two weeks, TNBC cell lines
Procedure: as §2

[9] = biological target: T3, BRD4; assay: Immunoblotting, comparison with Example 7 of WO2021061894 in MDA-MB-468 cells (FIGS. 12 and 13): BRD4; set-up: endogenous in cells; host or cells: MDA-MB-231, MDA-MB-468, SUM159; conditions: 48 hours after a single dose, Comparative Example 7 at 5 μM
Procedure: as §2, §3

[10] = biological target: T4, p-ERK5 (Homo sapiens, UniProt Q13164); assay: Immunoblotting in 3 TNBC cell lines (FIG. 8): phospho-ERK5 levels; conditions: at higher doses
T4 construct: endogenous in cells; host or cells: MDA-MB-231, MDA-MB-468, SUM159
T4 sequence (Q13164 whole entry): as the sequence (Q13164 whole entry) above
Procedure: as §2, with “ERK5, P-ERK5, ERK1/2,” for “ERK5,”
as §4

[11] = biological target: T3, BRD4; assay: Immunoblotting, specificity testing in 3 TNBC cell lines (FIG. 8): BRD4 levels; set-up: endogenous in cells; conditions: range of doses
Procedure: as §2, with “ERK5, P-ERK5, ERK1/2,” for “ERK5,”
as §4

[12] = biological target: T1, ERK5; assay: Immunoblotting, 8 point dose response to OS1 in 3 TNBC cell lines (FIG. 8): ERK5 levels; set-up: endogenous in cells; host or cells: MDA-MB-231, MDA-MB-468, SUM159
Procedure: as §2, with “ERK5, P-ERK5, ERK1/2,” for “ERK5,”
as §4

[13] = 24 h treatment, mRNA relative to PGK1 or ACTB, three TNBC cell lines

For `CCOc1cc(C(=O)N2CCC(N3CCN(C)CC3)CC2)ccc1Nc1ncc2c(n1)N(S(C)(=O)=O)c1ccccc1C(=O)N2C` [AX15836, 5,11-Dihydro-2-[[2-ethoxy-4-[[4-(4-methyl-1-piperazinyl)-1-piperidinyl]carbonyl]phenyl]amino]-5-methyl,11-(methylsulfonyl)-6H-pyrimido[4,5-b][1,4]benzodiazepin-6-one, reference compound], the “expression of genes that promote EMT, migration and metastatic behaviour (N-cadherin, cytokeratin, B1-integrin), angiogenesis (VEGF) and pro-tumour inflammation (IL6, IL1b)” value [1, 13] was “not” and the “effect on morphology of TNBC cells” value [2] was “does not”.

For `CCOc1cc(C(=O)N2CCC(N3CCN(CCCCCc4cccc5c4C(=O)N(C4CCC(=O)NC4=O)C5=O)CC3)CC2)ccc1Nc1ncc2c(n1)N(S(C)(=O)=O)c1ccccc1C(=O)N2C` (stereo not drawn) [OS1, 2-(2,6-Dioxopiperidin-3-yl)-4-(5-(4-(1-(3-ethoxy-4-((5-methyl-11-(methylsulfonyl)-6-oxo-6,11-dihydro-5H-benzo[e]pyrimido[5,4-b][1,4]diazepin-2-yl)amino)benzoyl)piperidin-4-yl)piperazin-1-yl)pentyl)isoindoline-1,3-dione], the “effect of repeated dosing on ERK1/2” value [3] was “no effect”, the “dose most effective in affecting gene expression” value ([1]; 0.1 or 1 μM tested, 24 h) was 1 µM and the “expression of genes that block EMT, migration and metastatic behaviour (E-cadherin)” value [1, 13] was “increase in expression”. The “expression of genes that promote EMT, migration and metastatic behaviour (N-cadherin, cytokeratin, B1-integrin), angiogenesis (VEGF) and pro-tumour inflammation (IL6, IL1b)” value [1, 13] was “induces a loss of expression”, the “ERK5 staining (green), immunofluorescence” value [4] was “loss of ERK5 staining” and the “dose efficacious at degrading ERK5 (analogous ERK5 degradation)” value [5] was 0.1 μM. For the same molecule, the “effect of repeated dosing on MEK5” value [6] was “unaffected”, the “off target effects on structurally similar proteins (ERK1/2)” value [7] was “no off target effects” and the “effect of repeated dosing on BRD4” value [8] was “no effect”. The “effect on morphology of TNBC cells” value [2] was “affects morphology”, the “degradation of off-target BRD4” value [9] was “do not cause degradation” and the “kinase inhibitor activity (p-ERK5 on immunoblot)” value [10] was “reduction in p-ERK5”. The “off target effects on known off-target of literature ERK5 inhibitors (BRD4)” value [11] was “no off target effects”, the “dose inducing the hook effect” value ([12]; TNBC cell lines) was 10 µM and the “most effective dose for ERK5 degradation” value ([12]; TNBC cell lines) was 1 µM. For the same molecule, the ERK5 degraded ([12]; range of TNBC cell lines (MDA-MB-231, MDA-MB-468, SUM159), western blot relative to β-actin) was > 90%.

Reference: patent US20250154157A1, “HETEROCYCLIC COMPOUNDS USEFUL FOR TREATING A ERK5-MEDIATED DISEASE” (Cancer Research Technology Limited, priority 2022, published 2025)
